Like-named read-outs stand apart in the source and are kept apart here.
Experiments:
[1] = test system: tumor cell lines; conditions: broad range of tumor cell lines; cited from earlier work
[2] = biological target: NAMPT (Homo sapiens (Human), UniProt P43490); experiment: Biochemical Inhibition Assay (NAMPT enzymatic reaction, NMN quantified by mass spectrometry); conditions: 33 nM recombinant His-tagged NAMPT, 1 μM NAM, 30 min at rt
Method in brief: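 His-tagged human NAMPT from E. coli preincubated 15 min at rt with compound in 50 mM Hepes pH 7.5, 50 mM NaCl, 5 mM MgCl2, 1 mM THP, then reacted 30 min at rt with 1 μM NAM, […] PRPP, 2.5 mM ATP. NMN quantified by RapidFire mass spectrometry, normalized to L-Cystathionine, background subtracted.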

[3] = test system: A2780 cells; experiment: In-Vitro Cell Proliferation Assay (SRB); conditions: Homo sapiens, A2780, 72 h
Protocol: Assay 2: In-Vitro Cell Proliferation Assay
Assay Method. […] The compounds were then further diluted to 10 OX final concentration in culture media, whereupon 20 μL of each dilution was added to the plated cells with controls (e.g. DMSO and blank) to make a final volume of 200 μL. The final DMSO concentration in each well was 0.1%. The plates were then incubated for 72 h at 37° C. in a 5% CO2 incubator. The number of viable cells was then assessed using sulforhodamine B (SRB) assay. Cells were fixed at 4° C. for 1 h with the addition of 50 μL 30% trichloroacetic acid (TCA) to make a final concentration of 6% TCA. The plates were washed four times with H2O and allowed to dry for at least 1 h, whereupon 100 μL of a 4% SRB in 1% acetic acid solution was added to each well and incubated at rt for at least 30 min. The plates were then washed three times with 1% acetic acid, dried, and treated with 100 μL of 10 mM Tris-Base solution. The plates were then read in a microplate reader at an absorbance of 570 nm. Background was generated on a separate plate with media only.
Determination of IC50 Values. First, the signals from the background plate were averaged, then the background was subtracted from the test plates.
The specificity of the compounds were determined via cell viability assay in the presence of the compound and either NAM or NMN Percent inhibitions were determined using the method given above.

[4] = test system: mouse mammary carcinoma; conditions: mouse mammary carcinoma model; cited from earlier work
[5] = read-out: Cell Proliferation (IC50)

Sequence of NAMPT (P43490 whole entry): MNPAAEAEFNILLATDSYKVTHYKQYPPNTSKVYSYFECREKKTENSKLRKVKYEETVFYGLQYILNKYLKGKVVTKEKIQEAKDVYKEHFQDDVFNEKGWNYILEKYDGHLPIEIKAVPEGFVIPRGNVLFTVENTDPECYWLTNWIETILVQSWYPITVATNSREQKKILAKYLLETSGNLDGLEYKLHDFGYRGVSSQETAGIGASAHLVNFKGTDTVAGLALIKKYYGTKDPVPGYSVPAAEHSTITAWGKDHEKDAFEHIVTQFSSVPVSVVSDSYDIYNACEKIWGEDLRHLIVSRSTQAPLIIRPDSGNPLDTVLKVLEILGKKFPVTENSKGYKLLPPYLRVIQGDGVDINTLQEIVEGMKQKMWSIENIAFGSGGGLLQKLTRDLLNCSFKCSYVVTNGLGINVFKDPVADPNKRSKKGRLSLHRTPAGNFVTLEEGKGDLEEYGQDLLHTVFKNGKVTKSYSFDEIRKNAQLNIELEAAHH

Structure (SMILES)	IC50 [2]	IC50 [3, 5]	other results
N#CN=C(NCCCCCCOc1ccc(Cl)cc1)Nc1ccncc1 [CHS-828]			cell growth [1]: potently inhibit cell growth
O=C(NCc1ccc(S(=O)(=O)c2ccccc2)cn1)c1cnc2nccn2c1 [Example 185, N-[[5-(benzenesulfonyl)-2-pyridyl]methyl]imidazo[1,2-a]pyrimidine-6-carboxamide]	20.2 nM	495 nM	
O=C(NCc1ccc(S(=O)(=O)c2ccccc2)cn1)c1cc2ccncc2s1 [Example 186, N-[[5-(benzenesulfonyl)-2-pyridyl]methyl]thieno[2,3-c]pyridine-2-carboxamide]	125 nM		IC50 ([3]; read-out: Cell Proliferation (IC50), A2780 cells, 72 h, sulforhodamine B): 918 nM
O=C(NCc1ncc(S(=O)(=O)c2ccccc2)cn1)c1cc2ccncc2s1 [Example 187, N-[[5-(benzenesulfonyl)pyrimidin-2-yl]methyl]thieno[2,3-c]pyridine-2-carboxamide]	433 nM	2000 nM	
O=C(/C=C/c1cccnc1)NCCCCC1CCN(C(=O)c2ccccc2)CC1 [FK866]			NAD levels [4]: reduce NAD levels; tumor growth [4]: induce a delay in tumor growth; tumor radiosensitivity [4]: enhance tumor radiosensitivity
